Laboratory results published in patent publication US20220280492A1, “THERAPEUTIC AGENT FOR CANCER HAVING RESISTANCE TO ANTI-CCR4 ANTIBODY” (DAIICHI SANKYO COMPANY, LIMITED, priority 2019, published 2022).

What was measured:
[1] = test system: ATL patients with a history of treatment with the anti-CCR4 antibody mogamulizumab; conditions: phase II trials; cited from earlier work
[2] = test system: recurrent or refractory ATL patients; test: multicenter open-label phase I trial of the clinical compound in non-Hodgkin's lymphoma patients; ATL patients analyzed; assay type: in vivo, human; parameters: key to Determination of effect on lesion site: Peripheral blood image / Best overall effect / Determination of effect on lesion site: Nodular lesion / Determination of effect on lesion site: Extranodal lesion: CR: Complete Remission; CRu: Uncertified Complete Remission; PR: Partial Remission; SD: Stable Disease; PD: Progressive Disease; NE: Not Evaluable
Experimental: Clinical trials which administer the clinical compound to patients with non-Hodgkin's lymphoma were carried out. ATL patients of the non-Hodgkin's lymphoma patients receiving the clinical compound were analyzed.
The clinical trial is a multicenter open-label phase I trial for the purpose of studying, e.g., safety, tolerability, pharmacokinetics and anti-tumor effect, by administering the clinical compound to patients with recurrent or refractory non-Hodgkin's lymphoma (no standard treatment is established or refractory or intolerant to a standard treatment) including ATL patients. […] In this manner, dose-limiting toxicity and recommended dose for the next phase are determined in the clinical trial.
The clinical compound was orally administered to individual test subjects once a day for consecutive days until unacceptable toxicity or disease progression was confirmed. […] The anti-tumor effect was observed principally, at intervals of 8 weeks, and evaluated based on “Definition, prognostic factors, treatment, and response criteria of adult T-cell leukemia-lymphoma: a proposal from an international consensus meeting” (J Clin Oncol. 2009; 27[3]: 453-9).
The dose of the first cohort was determined to be 150 mg/time/day based on the results of a nonclinical study. The dose of the next cohort was determined by comprehensively evaluating the dose recommended by the modified continual reassessment method (mCRM) based on information of the presence or absence of dose-limited toxicity and all safety data (including adverse event except dose limiting toxicity and abnormal laboratory test values), pharmacokinetics, biomarkers, and effectiveness data obtained up to the time point, and discussing with a sponsors, investigators and external experts.
The dosage amount of the clinical compound was in advance determined per cohort. As the clinical compound, two types of capsules different in dose were provided in combination. As the administration method, oral administration once a day was carried out for consecutive days.
The therapeutic effect on ATL was determined based on “Definition, prognostic factors, treatment, and response criteria of adult T-cell leukemia-lymphoma: a proposal from an international consensus meeting” (J Clin Oncol. 2009; 27[3]: 453-9). Before initiation of the clinical trial, necessary examinations, which were selected from CT scan, bone marrow examination, endoscopic inspection and blood test in accordance with the disease state of the test subject, were carried out to determine a target lesion. A change in the lesion was assessed principally at intervals of 8 weeks.

[3] = ATL patient No. 1, 150 mg oral once a day, treatment history: mogamulizumab present, lenalidomide present
[4] = ATL patient No. 2, 150 mg oral once a day, treatment history: mogamulizumab present, no lenalidomide
[5] = ATL patient No. 9, 200 mg oral once a day, treatment history: no mogamulizumab, lenalidomide present

Q: For `Nc1cccc2c1CN(C1CCC(=O)NC1=O)C2=O` (centres unmarked) [lenalidomide], which response rate [1] is on record?
A: The response rate was “about 18%”.

Q: With `Cc1cc(C)c(CNC(=O)c2cc(Cl)c3c(c2C)O[C@@](C)([C@H]2CC[C@H](N(C)C)CC2)O3)c(=O)[nH]1.Cc1ccc(S(=O)(=O)O)cc1` [clinical compound, (2R)-7-chloro-2-[trans-4-(dimethylamino)cyclohexyl]-N-[(4,6-dimethyl-2-oxo-1,2-dihydropyridin-3-yl)methyl]-2,4-dimethyl-1,3-benzodioxol-5-carboxamide p-toluenesulfonate] as the molecule, how does the “median value of PFS” value ([2]; 9 recurrent or refractory ATL patients) read?
A: Its value is 16.1 weeks.

Q: And the Best overall effect [2, 3]?
A: The Best overall effect was “PD”.

Q: And the “Determination of effect on lesion site: Extranodal lesion” value [2, 3]?
A: Its value is “PD”.

Q: What about the “Determination of effect on lesion site: Nodular lesion” value [2, 3] of the same molecule?
A: The value was “PD”.

Q: And the Best overall effect [2, 4]?
A: Its Best overall effect is “PR”.

Q: And the “Determination of effect on lesion site: Extranodal lesion” value [2, 4]?
A: Its value is “PR”.

Q: And the “Determination of effect on lesion site: Nodular lesion” value [2, 4]?
A: Its value is “Cru”.

Q: And the Best overall effect [2, 5]?
A: The Best overall effect was “PR”.

Q: What about the “Determination of effect on lesion site: Peripheral blood image” value [2, 5] of the same molecule?
A: The value was “PR”.

Q: What about the “patients evaluated as SD” value ([2]; of 6 patients with a history of treatment with mogamulizumab) of the same molecule?
A: Its value is 2 patients.

Q: What about the responders ([2]; of 6 patients with a history of treatment with mogamulizumab (CRu: 1 patient, PR: 2 patients)) of the same molecule?
A: The responders was 3 patients.

Q: And the response rate ([2]; recurrent or refractory ATL patients evaluable for effectiveness, 4 out of 9 patients [CRu: 1, PR: 3], 95%CI 13.7 to 78.8, intermediate data, oral once a day)?
A: The response rate was 44.4%.

Q: And the “disease control rate (percentage of patients exerting an effect of SD or more)” value ([2]; recurrent or refractory ATL patients, 7 out of 9 patients, intermediate data)?
A: The value was 77.8%.
